Values joined by “and” are separate entries in the source; they are usually repeats but may differ in a detail not shown here. Identical values can stand only once.
Columns and labels:
Test in all cases: FP assay with Cy5-labelled p62 LIR tracer (protein titration and tracer displacement)
Settings in all cases: replicates, listed as TH152
[1] = target: LC3C (Homo sapiens, UniProt Q9BXW4); type: binding
[2] = target: GABARAP (Homo sapiens, UniProt O95166); type: binding
[3] = target: GABARAPL1 (Homo sapiens, UniProt Q9H0R8); type: binding
Sequence of GABARAPL1 (Q9H0R8 whole entry): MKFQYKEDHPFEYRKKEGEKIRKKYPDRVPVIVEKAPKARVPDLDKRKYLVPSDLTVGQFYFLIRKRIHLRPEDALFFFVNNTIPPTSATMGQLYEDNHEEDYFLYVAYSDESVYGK

[4] = target: GABARAPL2 (Homo sapiens, UniProt P60520)
Sequence of GABARAPL2 (P60520 whole entry): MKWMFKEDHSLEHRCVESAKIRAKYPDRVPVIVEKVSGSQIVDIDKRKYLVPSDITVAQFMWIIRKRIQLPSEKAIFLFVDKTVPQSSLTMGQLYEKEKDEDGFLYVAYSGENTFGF

Sequence of LC3C (Q9BXW4 1-126): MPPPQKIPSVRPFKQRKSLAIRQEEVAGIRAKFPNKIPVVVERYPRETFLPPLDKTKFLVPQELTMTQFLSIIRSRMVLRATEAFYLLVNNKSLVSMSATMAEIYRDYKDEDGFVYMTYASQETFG
Sequence of GABARAP (O95166 1-116): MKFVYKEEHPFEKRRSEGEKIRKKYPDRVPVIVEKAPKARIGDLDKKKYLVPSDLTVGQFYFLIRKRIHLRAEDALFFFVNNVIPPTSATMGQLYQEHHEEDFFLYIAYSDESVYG

## CCCCCCC(Sc1nc(Cl)cc(Nc2nc(-c3ccc(C(=O)O)cc3)cs2)n1)C(=O)O (centres unmarked) [compound 21]
[1]; log10 concentration [M] -3.5
  FP assay result (normalised FP signal): 19.6537 and 17.9691 and 15.5358 and 11.7922
[1]; log10 concentration [M] -4
  FP assay result (normalised FP signal): 50.5381 and 45.8587 and 48.6664 and 46.0459
[1]; log10 concentration [M] -4.5
  FP assay result (normalised FP signal): 71.5021 and 72.0636 and 76.3687 and 74.6841
[1]; log10 concentration [M] -5
  FP assay result (normalised FP signal): 93.0276 and 94.7122 and 94.8994 and 95.6481
[1]; log10 concentration [M] -5.5
  FP assay result (normalised FP signal): 93.7763 and 94.3379 and 97.5199 and 95.8353
[1]; log10 concentration [M] -6
  FP assay result (normalised FP signal): 96.0225 and 101.076 and 101.638 and 98.4558
[1]; log10 concentration [M] -6.5
  FP assay result (normalised FP signal): 90.0328 and 92.0917 and 90.5943 and 93.2148
[1]; log10 concentration [M] -7
  FP assay result (normalised FP signal): 99.2045 and 96.9584 and 97.5199 and 97.8942
[1]; log10 concentration [M] -7.5
  FP assay result (normalised FP signal): 99.9532 and 98.8301 and 99.3917 and 101.825
[1]; log10 concentration [M] -8
  FP assay result (normalised FP signal): 96.2096 and 99.0173 and 101.263 and 99.2045
[1]; log10 concentration [M] -8.5
  FP assay result (normalised FP signal): 94.3379 and 96.2096 and 95.0866 and 96.0225
[2]; log10 concentration [M] -3.5
  FP assay result (normalised FP signal): 6.476 and 7.14 and 8.634 and 10.7929
[2]; log10 concentration [M] -4
  FP assay result (normalised FP signal): 22.9141 and 19.9253 and 28.8917 and 24.7406
[2]; log10 concentration [M] -4.5
  FP assay result (normalised FP signal): 50.1453 and 47.6546 and 52.4699 and 48.8169
[2]; log10 concentration [M] -5
  FP assay result (normalised FP signal): 88.9996 and 85.5127 and 92.3205 and 91.9884
[2]; log10 concentration [M] -5.5
  FP assay result (normalised FP signal): 94.6451 and 91.9884 and 100.623 and 97.7999
[2]; log10 concentration [M] -6
  FP assay result (normalised FP signal): 98.298 and 99.6264 and 101.287 and 99.7924
[2]; log10 concentration [M] -6.5
  FP assay result (normalised FP signal): 94.479 and 92.8186 and 96.6376 and 97.7999
[2]; log10 concentration [M] -7
  FP assay result (normalised FP signal): 96.3055 and 97.7999 and 100.955 and 96.9697
[2]; log10 concentration [M] -7.5
  FP assay result (normalised FP signal): 97.3018 (2×) and 101.453 and 101.785
[2]; log10 concentration [M] -8
  FP assay result (normalised FP signal): 99.9585 and 97.966 and 101.619 and 100.457
[2]; log10 concentration [M] -8.5
  FP assay result (normalised FP signal): 96.1395 and 97.7999 and 97.966 and 99.2943
[3]; log10 concentration [M] -3.5
  FP assay result (normalised FP signal): 12.2578 and 12.5396 and 10.1444 and 7.186
[3]; log10 concentration [M] -4
  FP assay result (normalised FP signal): 30.4333 and 31.4195 and 29.5879 and 26.0655
[3]; log10 concentration [M] -4.5
  FP assay result (normalised FP signal): 65.2342 and 56.9215 and 57.9077 and 55.9352
[3]; log10 concentration [M] -5
  FP assay result (normalised FP signal): 92.9905 and 91.2998 and 95.2448 and 93.4132
[3]; log10 concentration [M] -5.5
  FP assay result (normalised FP signal): 96.2311 and 98.3445 and 98.9081 and 98.7672
[3]; log10 concentration [M] -6
  FP assay result (normalised FP signal): 98.6263 and 98.7672 (2×) and 99.1899
[3]; log10 concentration [M] -6.5
  FP assay result (normalised FP signal): 96.2311 and 93.5541 and 95.6675 and 93.2723
[3]; log10 concentration [M] -7
  FP assay result (normalised FP signal): 99.049 and 98.3445 and 97.64 and 97.4991
[3]; log10 concentration [M] -7.5
  FP assay result (normalised FP signal): 101.021 and 101.867 and 99.049 and 98.0627
[3]; log10 concentration [M] -8
  FP assay result (normalised FP signal): 97.0764 and 96.0902 (2×) and 101.162
[3]; log10 concentration [M] -8.5
  FP assay result (normalised FP signal): 95.6675 and 98.9081 and 96.9355 and 97.3582
[4]; log10 concentration [M] -3.5
  FP assay result (normalised FP signal): 15.4589 and 21.9002 and 32.8502 and 25.1208
[4]; log10 concentration [M] -4
  FP assay result (normalised FP signal): 44.4444 and 43.8003 and 53.7842 and 57.0048
[4]; log10 concentration [M] -4.5
  FP assay result (normalised FP signal): 73.752 and 73.1079 and 75.0403 and 77.2947
[4]; log10 concentration [M] -5
  FP assay result (normalised FP signal): 94.686 and 90.8213 and 95.0081 and 104.992
[4]; log10 concentration [M] -5.5
  FP assay result (normalised FP signal): 97.2625 and 94.0419 and 105.958 and 102.093
[4]; log10 concentration [M] -6
  FP assay result (normalised FP signal): 96.2963 and 93.0757 and 104.026 and 99.5169
[4]; log10 concentration [M] -6.5
  FP assay result (normalised FP signal): 86.9565 and 89.8551 and 99.1948 and 93.0757
[4]; log10 concentration [M] -7
  FP assay result (normalised FP signal): 90.4992 and 100.483 and 104.992 and 96.9404
[4]; log10 concentration [M] -7.5
  FP assay result (normalised FP signal): 99.839 and 95.9742 and 100.161 and 104.026
[4]; log10 concentration [M] -8
  FP assay result (normalised FP signal): 94.686 and 94.3639 and 101.127 and 98.5507
[4]; log10 concentration [M] -8.5
  FP assay result (normalised FP signal): 91.4654 and 99.5169 and 96.2963 and 101.127
